US20250074890A1, “CYANOPYRIDINE AND CYANOPYRIMIDINE BCL6 DEGRADERS” (DANA-FARBER CANCER INSTITUTE, INC., priority 2021, published 2025)

The compounds below were run against T1, BCL6 (Homo sapiens, UniProt P41182) (assay: HiBiT cellular degradation assay in Su-DHL-4 cells). Details: concentration to reach 50% degradation of endogenous SmBiT-tagged BCL6, 24 hours of compound treatment.
T1 construct: Endogenous BCL6 was tagged with the 11-amino acid SmBiT through CRISPR/Cas9 gene editing; endogenous in cells; host or cells: Su-DHL-4 (CRISPR/Cas9 knock-in, single cell clone)
Format: cell-based
Method in brief: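 SU-DHL-4 cells with endogenous BCL6 SmBiT-tagged by CRISPR/Cas9 treated with compound for 24 hours, then lysed and LgBiT added to reconstitute nanoluciferase; luminescence read after substrate addition. Degradation as percentage of DMSO control; DC50 is concentration giving 50% degradation.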

| Compound | DC50 |
| --- | --- |
| C[C@H]1C[C@@H](N)CN(c2nc(Nc3ccc4c(c3)n(CCC(C)(C)O)c(=O)n4C)c(Cl)cc2C#N)C1 [Compound 35, 2-((3R,5S)-3-Amino-5-methylpiperidin-1-yl)-5-chloro-6-((3-(3-hydroxy-3-methylbutyl)-1-methyl-2-oxo-2,3-dihydro-1H-benzo[d]imidazol-5-yl)amino)nicotinonitrile] | > 400 nM |
| CNC(=O)COc1cc2cc(Nc3nc(N4C[C@@H](C)C(F)(F)[C@@H](C)C4)c(C#N)cc3Cl)ccc2nc1OCC1COC1 [Compound 58, 2-((6-((3-chloro-5-cyano-6-((3R,5S)-4,4-difluoro-3,5-dimethylpiperidin-1-yl)pyridin-2-yl)amino)-2-(oxetan-3-ylmethoxy)quinolin-3-yl)oxy)-N-methylacetamide] | > 400 nM |
| CC(O)CCn1c(=O)n(C)c2ccc(Nc3nc(N4C[C@@H](CCO)[C@H](F)[C@@H](C)C4)c(C#N)cc3F)cc21 (stereo partly drawn) [Compound 56, 5-fluoro-2-[(3R,4R,5S)-4-fluoro-3-(2-hydroxyethyl)-5-methyl-1-piperidyl]-6-[[3-(3-hydroxybutyl)-1-methyl-2-oxo-benzimidazol-5-yl]amino]pyridine-3-carbonitrile] | > 400 nM |
| C[C@H]1CN(c2nc(Nc3ccc4c(c3)n(C[C@@H]3CNC(=O)O3)c(=O)n4C)c(F)cc2C#N)C[C@@H](N)C1(F)F [Compound 85, 2-[(3R,5S)-3-amino-4,4-difluoro-5-methyl-1-piperidyl]-5-fluoro-6-[[1-methyl-2-oxo-3-[[(5S)-2-oxooxazolidin-5-yl]methyl]benzimidazol-5-yl]amino]pyridine-3-carbonitrile] | > 400 nM |
| C[C@@H]1C[C@H](N)CN(c2nc(Nc3ccc4c(c3)c3c(c(=O)n4C)OCC(F)(F)[C@H](C4CC4)N3)c(Cl)cc2C#N)C1 [Compound 25, 2-((3S,5R)-3-Amino-5-methylpiperidin-1-yl)-5-chloro-6-(((S)-2-cyclopropyl-3,3-difluoro-7-methyl-6-oxo-1,2,3,4,6,7-hexahydro-[1,4]oxazepino[2,3-c]quinolin-10-yl)amino)nicotinonitrile] | > 400 nM |
| C[C@H]1CN(c2nc(Nc3ccc4c(c3)n(C[C@H]3COC(=O)N3)c(=O)n4C)c(F)cc2C#N)C[C@@H](N)C1(F)F [Compound 61, 2-((3R,5S)-3-amino-4,4-difluoro-5-methylpiperidin-1-yl)-5-fluoro-6-((1-methyl-2-oxo-3-(((S)-2-oxooxazolidin-4-yl)methyl)-2,3-dihydro-1H-benzo[d]imidazol-5-yl)amino)nicotinonitrile] | > 400 nM |
| C[C@H]1CN(c2nc(Nc3ccc4c(c3)n(CCC(C)(C)O)c(=O)n4CC3COC3)c(Cl)cc2C#N)C[C@@H](N)C1(F)F [Compound 38, 2-((3R,5S)-3-Amino-4,4-difluoro-5-methylpiperidin-1-yl)-5-chloro-6-((3-(3-hydroxy-3-methylbutyl)-1-(oxetan-3-ylmethyl)-2-oxo-2,3-dihydro-1H-benzo[d]imidazol-5-yl)amino)nicotinonitrile] | > 400 nM |

The remaining lines, values ahead:

| DC50 | Compound |
| --- | --- |
| 6 nM | CNC(=O)COc1cc2cc(Nc3ncc(C#N)c(N4C[C@@H](C)C(F)(F)[C@@H](C)C4)n3)ccc2n(C)c1=O [Compound 1, 2-((6-((5-cyano-4-((3S,5R)-4,4-difluoro-3,5-dimethylpiperidin-1-yl)pyrimidin-2-yl)amino)-1-methyl-2-oxo-1,2-dihydroquinolin-3-yl)oxy)-N-methylacetamide] |
| 38 nM | C[C@H](O)CCn1c(=O)n(C)c2ccc(Nc3nc(N4C[C@@H](C)[C@@H](F)[C@@H](C)C4)c(C#N)cc3F)cc21 [Compound 54, 5-Fluoro-2-((3S,4R,5R)-4-fluoro-3,5-dimethylpiperidin-1-yl)-6-((3-((S)-3-hydroxybutyl)-1-methyl-2-oxo-2,3-dihydro-1H-benzo[d]imidazol-5-yl)amino)nicotinonitrile] |
| 71 nM | CNC(=O)COc1cc2cc(Nc3nc(N4C[C@@H](N)C(F)(F)[C@@H](C)C4)c(C#N)cc3Cl)ccc2n(CC2COC2)c1=O (single isomer, unassigned) [Compound 42] |
| 6 nM | CNC(=O)COc1cc2cc(Nc3nc(N4C[C@@H](C)[C@@H](O)[C@@H](C)C4)c(C#N)cc3Cl)ccc2n(C)c1=O [Compound 46, 2-((6-((3-Chloro-5-cyano-6-((3R,4s,5S)-4-hydroxy-3,5-dimethylpiperidin-1-yl)pyridin-2-yl)amino)-1-methyl-2-oxo-1,2-dihydroquinolin-3-yl)oxy)-N-methylacetamide] |
| 17 nM | C[C@@H]1CN(c2nc(Nc3ccc4c(c3)n(CCC(C)(C)O)c(=O)n4C)c(F)cc2C#N)C[C@H](O)[C@@H]1F [Compound 52, 5-Fluoro-2-((3S,4R,5R)-4-fluoro-3-hydroxy-5-methylpiperidin-1-yl)-6-((3-(3-hydroxy-3-methylbutyl)-1-methyl-2-oxo-2,3-dihydro-1H-benzo[d]imidazol-5-yl)amino)nicotinonitrile] |
| 56 nM | CNC(=O)COc1cc2cc(Nc3nc(N4C[C@@H](C)C(F)(F)[C@@H](C)C4)c(C#N)cc3Cl)ccc2n(CC2CNC2)c1=O [Compound 65, 2-((1-(Azetidin-3-ylmethyl)-6-((3-chloro-5-cyano-6-((3R,5S)-4,4-difluoro-3,5-dimethylpiperidin-1-yl)pyridin-2-yl)amino)-2-oxo-1,2-dihydroquinolin-3-yl)oxy)-N-methylacetamide] |
| 73 nM | C[C@H](O)Cn1c(=O)n(CCC(C)(C)O)c2cc(Nc3nc(N4C[C@@H](N)C(F)(F)[C@@H](C)C4)c(C#N)cc3F)ccc21 [Compound 90, 2-((3R,5S)-3-Amino-4,4-difluoro-5-methylpiperidin-1-yl)-5-fluoro-6-((3-(3-hydroxy-3-methylbutyl)-1-((S)-2-hydroxypropyl)-2-oxo-2,3-dihydro-1H-benzo[d]imidazol-5-yl)amino)nicotinonitrile] |
| 5 nM | CNC(=O)COc1cc2cc(Nc3nc(N4C[C@@H](C)C(F)(F)[C@@H](C)C4)c(C#N)cc3Cl)ccc2n(CCCO)c1=O [Compound 18, 2-((6-((3-Chloro-5-cyano-6-((3R,5S)-4,4-difluoro-3,5-dimethylpiperidin-1-yl)pyridin-2-yl)amino)-1-(3-hydroxypropyl)-2-oxo-1,2-dihydroquinolin-3-yl)oxy)-N-methylacetamide] |
| 31 nM | C[C@@H]1CN(c2nc(Nc3ccc4c(c3)n(CCC(C)(C)O)c(=O)n4C)c(Cl)cc2C#N)C[C@H](N)C1(F)F [Compound 48, 2-((3S,5R)-3-Amino-4,4-difluoro-5-methylpiperidin-1-yl)-5-chloro-6-((3-(3-hydroxy-3-methylbutyl)-1-methyl-2-oxo-2,3-dihydro-1H-benzo[d]imidazol-5-yl)amino)nicotinonitrile] |

These compounds were tested on Su-DHL-4 cells (assay: CellTiter-Glo cell proliferation, BCL6 degrader with EZH2 inhibitors). Details: EZH2 inhibitor at 480 nM added to BCL6 degrader (compound 1); Su-DHL-4 cells; 60% growth inhibition.
Format: cell-based
Description: Enhancer of zeste homolog 2 (EZH2) is a member of the polycomb repressive complex 2 (PRC2) that methylates histone 3 lysine 27, a mark that is associated with gene repression.
To ensure HiBiT signal decrease was due to BCL6 degradation and not from dying cells, CellTiter-Glo® (CTG, Promega™) was performed on the same number of cells that were treated for 24 hours with BCL6 degraders. To study the anti-proliferative effects of BCL6 degraders and its synergistic effect with EZH2 inhibitors, Su-DHL-4 and other DLBCL cells were treated with the compounds at DC99, DC75, DC50, or 1 μM followed by 5 days of culture, at which point CTG values and/or Caspase3/7 activities were measured as percent DMSO treated.

| Compound | reduction of BCL6 degrader dose requirement to achieve GI60 |
| --- | --- |
| COc1cc(C)[nH]c(=O)c1CNC(=O)c1c(C)n([C@H](C)C2CCN(CC(F)(F)F)CC2)c2ccccc12 [Lira, Lirametostat, reference compound] | around 4.3 fold |

Same assay, conditions: compound 1 (50 nM to 2 nM) added 48 hours after Tazemetostat or Lirametostat (10 μM to 5 nM); read five days later; over most of the concentration range

| Compound | excess over Bliss (eob) score |
| --- | --- |
| CNC(=O)COc1cc2cc(Nc3ncc(C#N)c(N4C[C@@H](C)C(F)(F)[C@@H](C)C4)n3)ccc2n(C)c1=O [Compound 1, 2-((6-((5-cyano-4-((3S,5R)-4,4-difluoro-3,5-dimethylpiperidin-1-yl)pyrimidin-2-yl)amino)-1-methyl-2-oxo-1,2-dihydroquinolin-3-yl)oxy)-N-methylacetamide] | > 1 |

Same assay, conditions: compound 1 with Tazemetostat or Lirametostat; Su-DHL-4 cells; over most of the concentration range

| Compound | average synergy score (SynergyFinder) |
| --- | --- |
| CNC(=O)COc1cc2cc(Nc3ncc(C#N)c(N4C[C@@H](C)C(F)(F)[C@@H](C)C4)n3)ccc2n(C)c1=O [Compound 1, 2-((6-((5-cyano-4-((3S,5R)-4,4-difluoro-3,5-dimethylpiperidin-1-yl)pyrimidin-2-yl)amino)-1-methyl-2-oxo-1,2-dihydroquinolin-3-yl)oxy)-N-methylacetamide] | over 10 |
